# Test results published in PubChem BioAssay AID1963848 (Molecular Pharmacology Branch, DTP, NCI, 2024).
# Test system: 379773-124-R-J2-PDC spheroid viability
# Experiment: Anticancer human tumor 379773-124-R-J2-PDC patient-derived endometrial carcinoma cell line growth inhibition [POLQ]
# Settings: spheroids with HUVEC and MSC; for IC50: curve of first compound; for viability, T/C: stronger effect = lower value
# Outline: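 Patient-derived tumour cells were co-cultured with HUVEC and mesenchymal stem cells as multicellular spheroids at 37 °C. They were treated with POLQ inhibitors (novobiocin, ART-558, RP6685) alone or combined with other agents. Top concentrations were at or near clinical Cmax (otherwise 10 microM; SN-38 at 1 microM), decreasing in half-log steps.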
# [1] = second compound 0.0316 µM, first compound 0.0316 µM
# [2] = second compound 0.0316 µM, first compound 0.1 µM
# [3] = second compound 0.0316 µM, first compound 0.316 µM
# [4] = second compound 0.0316 µM, first compound 1 µM
# [5] = second compound 0.0316 µM, first compound 3.16 µM
# [6] = second compound 0.0316 µM, first compound 10 µM
# [7] = second compound 0.1 µM, first compound 0.0316 µM
# [8] = second compound 0.1 µM, first compound 0.1 µM
# [9] = second compound 0.1 µM, first compound 0.316 µM
# [10] = second compound 0.1 µM, first compound 1 µM
# [11] = second compound 0.1 µM, first compound 3.16 µM
# [12] = second compound 0.1 µM, first compound 10 µM
# [13] = second compound 0.316 µM, first compound 0.0316 µM
# [14] = second compound 0.316 µM, first compound 0.1 µM
# [15] = second compound 0.316 µM, first compound 0.316 µM
# [16] = second compound 0.316 µM, first compound 1 µM
# [17] = second compound 0.316 µM, first compound 3.16 µM
# [18] = second compound 0.316 µM, first compound 10 µM
# [19] = second compound 1 µM, first compound 0.0316 µM
# [20] = second compound 1 µM, first compound 0.1 µM
# [21] = second compound 1 µM, first compound 0.316 µM
# [22] = second compound 1 µM, first compound 1 µM
# [23] = second compound 1 µM, first compound 3.16 µM
# [24] = second compound 1 µM, first compound 10 µM
# [25] = second compound 3.16 µM, first compound 0.0316 µM
# [26] = second compound 3.16 µM, first compound 0.1 µM
# [27] = second compound 3.16 µM, first compound 0.316 µM
# [28] = second compound 3.16 µM, first compound 1 µM
# [29] = second compound 3.16 µM, first compound 3.16 µM
# [30] = second compound 3.16 µM, first compound 10 µM
# [31] = second compound 10 µM, first compound 0.0316 µM
# [32] = second compound 10 µM, first compound 0.1 µM
# [33] = second compound 10 µM, first compound 0.316 µM
# [34] = second compound 10 µM, first compound 1 µM
# [35] = second compound 10 µM, first compound 3.16 µM
# [36] = second compound 10 µM, first compound 10 µM
# 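Further: spheroids exposed to drugs for seven days before readout.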
# 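Wherever viability, T/C is given: percent viability relative to DMSO vehicle control taken as 100%.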
structure (smiles),measurement,setting,value
CC(=O)O[C@H]1C(=O)[C@@]2(C)[C@H]([C@H](OC(=O)c3ccccc3)[C@]3(O)C[C@H](OC(=O)[C@H](O)[C@@H](NC(=O)c4ccccc4)c4ccccc4)C(C)=C1C3(C)C)[C@]1(OC(C)=O)CO[C@@H]1C[C@@H]2O + Cc1cccc(N(C)C(=O)C2C(O)CCN2c2nc(C)cc(C(F)(F)F)c2C#N)c1,IC50,second compound 0.0316 µM,< 9.49 nM
same,IC50,second compound 0.1 µM,< 9.49 nM
same,IC50,second compound 0.316 µM,< 9.49 nM
same,IC50,second compound 1 µM,< 9.49 nM
same,IC50,second compound 3.16 µM,< 9.49 nM
same,IC50,second compound 10 µM,< 9.49 nM
same,"viability, T/C","second compound 0.0316 µM, first compound 0.00949 µM",24.4%
same,"viability, T/C","second compound 0.0316 µM, first compound 0.03 µM",11.6%
same,"viability, T/C","second compound 0.0316 µM, first compound 0.0949 µM",7.9%
same,"viability, T/C","second compound 0.0316 µM, first compound 0.3 µM",12.8%
same,"viability, T/C","second compound 0.0316 µM, first compound 0.949 µM",13.3%
same,"viability, T/C","second compound 0.0316 µM, first compound 3 µM",10.6%
same,"viability, T/C","second compound 0.1 µM, first compound 0.00949 µM",25.5%
same,"viability, T/C","second compound 0.1 µM, first compound 0.03 µM",8.1%
same,"viability, T/C","second compound 0.1 µM, first compound 0.0949 µM",9.59%
same,"viability, T/C","second compound 0.1 µM, first compound 0.3 µM",9.63%
same,"viability, T/C","second compound 0.1 µM, first compound 0.949 µM",10.5%
same,"viability, T/C","second compound 0.1 µM, first compound 3 µM",7.41%
same,"viability, T/C","second compound 0.316 µM, first compound 0.00949 µM",27.3%
same,"viability, T/C","second compound 0.316 µM, first compound 0.03 µM",9.48%
same,"viability, T/C","second compound 0.316 µM, first compound 0.0949 µM",11.7%
same,"viability, T/C","second compound 0.316 µM, first compound 0.3 µM",9.83%
same,"viability, T/C","second compound 0.316 µM, first compound 0.949 µM",10.2%
same,"viability, T/C","second compound 0.316 µM, first compound 3 µM",9.11%
same,"viability, T/C","second compound 1 µM, first compound 0.00949 µM",23.7%
same,"viability, T/C","second compound 1 µM, first compound 0.03 µM",13.9%
same,"viability, T/C","second compound 1 µM, first compound 0.0949 µM",11.9%
same,"viability, T/C","second compound 1 µM, first compound 0.3 µM",10.7%
same,"viability, T/C","second compound 1 µM, first compound 0.949 µM",10.9%
same,"viability, T/C","second compound 1 µM, first compound 3 µM",7.53%
same,"viability, T/C","second compound 3.16 µM, first compound 0.00949 µM",15.8%
same,"viability, T/C","second compound 3.16 µM, first compound 0.03 µM",8.23%
same,"viability, T/C","second compound 3.16 µM, first compound 0.0949 µM",10.8%
same,"viability, T/C","second compound 3.16 µM, first compound 0.3 µM",11.8%
same,"viability, T/C","second compound 3.16 µM, first compound 0.949 µM",10.8%
same,"viability, T/C","second compound 3.16 µM, first compound 3 µM",12%
same,"viability, T/C","second compound 10 µM, first compound 0.00949 µM",16.4%
same,"viability, T/C","second compound 10 µM, first compound 0.03 µM",10.1%
same,"viability, T/C","second compound 10 µM, first compound 0.0949 µM",9.57%
same,"viability, T/C","second compound 10 µM, first compound 0.3 µM",10.7%
same,"viability, T/C","second compound 10 µM, first compound 0.949 µM",10.5%
same,"viability, T/C","second compound 10 µM, first compound 3 µM",7.56%
COc1cc(C2c3cc4c(cc3C(OC3OC5COC(C)OC5C(O)C3O)C3COC(=O)C23)OCO4)cc(OC)c1O (stereo unspecified) + Cc1cccc(N(C)C(=O)C2C(O)CCN2c2nc(C)cc(C(F)(F)F)c2C#N)c1,IC50,second compound 0.0316 µM,1190 nM
same,IC50,second compound 0.1 µM,1230 nM
same,IC50,second compound 0.316 µM,914 nM
same,IC50,second compound 1 µM,1190 nM
same,IC50,second compound 3.16 µM,1040 nM
same,IC50,second compound 10 µM,577 nM
same,"viability, T/C",[1],91.2%
same,"viability, T/C",[2],71.9%
same,"viability, T/C",[3],82.6%
same,"viability, T/C",[4],56.5%
same,"viability, T/C",[5],12.7%
same,"viability, T/C",[6],8.66%
same,"viability, T/C",[7],82.8%
same,"viability, T/C",[8],83.6%
same,"viability, T/C",[9],83.8%
same,"viability, T/C",[10],58%
same,"viability, T/C",[11],12.7%
same,"viability, T/C",[12],9.6%
same,"viability, T/C",[13],86%
same,"viability, T/C",[14],82%
same,"viability, T/C",[15],68.4%
same,"viability, T/C",[16],52.9%
same,"viability, T/C",[17],12%
same,"viability, T/C",[18],9.6%
same,"viability, T/C",[19],74.4%
same,"viability, T/C",[20],84.9%
same,"viability, T/C",[21],71.1%
same,"viability, T/C",[22],57.1%
same,"viability, T/C",[23],9.91%
same,"viability, T/C",[24],11.1%
same,"viability, T/C",[25],73.3%
same,"viability, T/C",[26],80.9%
same,"viability, T/C",[27],77.9%
same,"viability, T/C",[28],51.4%
same,"viability, T/C",[29],11%
same,"viability, T/C",[30],13.6%
same,"viability, T/C",[31],77.6%
same,"viability, T/C",[32],75%
same,"viability, T/C",[33],66.1%
same,"viability, T/C",[34],35.5%
same,"viability, T/C",[35],11.9%
same,"viability, T/C",[36],11.2%
O=c1[nH]cc(F)c(=O)[nH]1 + Cc1cccc(N(C)C(=O)C2C(O)CCN2c2nc(C)cc(C(F)(F)F)c2C#N)c1,IC50,second compound 0.0316 µM,> 10000 nM
same,IC50,second compound 0.1 µM,> 10000 nM
same,IC50,second compound 0.316 µM,> 10000 nM
same,IC50,second compound 1 µM,> 10000 nM
same,IC50,second compound 3.16 µM,> 10000 nM
same,IC50,second compound 10 µM,> 10000 nM
same,"viability, T/C",[1],95%
same,"viability, T/C",[2],88.5%
same,"viability, T/C",[3],88.2%
same,"viability, T/C",[4],77.2%
same,"viability, T/C",[5],76.6%
same,"viability, T/C",[6],61.5%
same,"viability, T/C",[7],95.5%
same,"viability, T/C",[8],90.7%
same,"viability, T/C",[9],93.4%
same,"viability, T/C",[10],85.8%
same,"viability, T/C",[11],82%
same,"viability, T/C",[12],58.7%
same,"viability, T/C",[13],91.8%
same,"viability, T/C",[14],88.7%
same,"viability, T/C",[15],94%
same,"viability, T/C",[16],74.5%
same,"viability, T/C",[17],82%
same,"viability, T/C",[18],68.8%
same,"viability, T/C",[19],92.2%
same,"viability, T/C",[20],90.4%
same,"viability, T/C",[21],82.2%
same,"viability, T/C",[22],86.3%
same,"viability, T/C",[23],74.2%
same,"viability, T/C",[24],67.7%
same,"viability, T/C",[25],84.9%
same,"viability, T/C",[26],97.8%
same,"viability, T/C",[27],79.8%
same,"viability, T/C",[28],76.5%
same,"viability, T/C",[29],77.3%
same,"viability, T/C",[30],52.9%
same,"viability, T/C",[31],78.7%
same,"viability, T/C",[32],96.6%
same,"viability, T/C",[33],96.4%
same,"viability, T/C",[34],83%
same,"viability, T/C",[35],75%
same,"viability, T/C",[36],56.2%
